Literature values, collected in paper PMC4726456 (Cell, 2014).

Assays:
cellular microtubules = conditions: ref Piperno et al., 1987; Takemura et al., 1992
tubulin = conditions: ref Mulder et al., 2009

Row | Compound | Effect on microtubule acetylation levels in cells (cellular microtubules) | Induction of tubulin rings (tubulin)
1 | CC(=O)O[C@H]1C(=O)[C@@]2(C)[C@H]([C@H](OC(=O)c3ccccc3)[C@]3(O)C[C@H](OC(=O)[C@H](O)[C@@H](NC(=O)c4ccccc4)c4ccccc4)C(C)=C1C3(C)C)[C@]1(OC(C)=O)CO[C@@H]1C[C@@H]2O [taxol] | increases acetylation levels | –
2 | Dolastatin-10 | – | induces tubulin rings by curving individual protofilaments
